The text below walks through data of patent US20050043214A1, “Antiglaucomatous agent and use thereof” (priority 2001, published 2005).

Molecules are shown by their SMILES.

This test concerns Patients with glaucoma. The test can be described thus: Intraocular pressure of glaucoma patients measured by applanation tonometry during eyedrop treatment. It is filed as in vivo, human. The note with it: average of last six measurements. Here is the method: Patients with glaucoma which had led to glaucomatous damage were treated. All the patients had previously been treated with timolol 0.5% eyedrops, and in some cases with a combination therapy of timolol 0.5% and another antiglaucomatous agent. The initial state of the intraocular pressure was measured during the previous therapy by determining the average of the last six measurements during the previous therapy. Two groups of patients were then treated according to the invention. […] They formed the group of decompensated glaucomas. Group 2 comprised patients who had normalized intraocular pressures on treatment with timolol 0.5%. They formed the group of compensated glaucomas. […] A third group formed of 11 patients was treated in the same manner with eyedrops which contained only 0.5% lactalbumin hydrolyzate fraction from example 5. The intraocular pressure was checked initially after one day, after two days and then weekly. The measurements of intraocular pressure took place at various times of day (morning, midday, late afternoon) by applanation tonometry. In total, 18 patients with an average age of 56.6 years, of whom 8 were male and 10 patients were female, were treated for 9 weeks.

As to `CC(C)(C)NC[C@H](O)COc1nsnc1N1CCOCC1` [timolol], the “average intraocular pressure by applanation before the treatment according to the invention” value reads like this: (group 1 decompensated glaucomas, on timolol 0.5% or combination therapy with another antiglaucomatous agent, range of variation 3.6 mmHg) 26.4 mmHg; (group 2 compensated glaucomas, on timolol 0.5%, range of variation 1.6 mmHg) 19.2 mmHg.
